Assay results taken from publication PMC4843002, “Identification of pyrazolopyridazinones as PDEδ inhibitors” (Nature Communications, 2016).

Biological target: PDEδ (Homo sapiens, UniProt O43924)
Experiment: competitive fluorescence polarization displacement assay
Assay type: binding
Method: The Kd values were determined by the fluorescence polarization competition-binding assay, which we developed before.

Kd [nM]	Compound
5 ± 2	Cc1c(Cl)cccc1NC(=O)CCCn1nc(C)c2c(C)n(-c3ccccc3)nc2c1=O [2a]
136 ± 55	Cc1nn(CCCC(=O)NCc2ccco2)c(=O)c2nn(-c3ccccc3)c(C)c12 [2b]
42 ± 15	Cc1nn(CCCC(=O)NCc2ccccc2)c(=O)c2nn(-c3ccccc3)c(C)c12 [2c]
81 ± 21	COc1ccc(CNC(=O)CCCn2nc(C)c3c(C)n(-c4ccccc4)nc3c2=O)cc1 [2d]
96 ± 14	Cc1ccc(CNC(=O)CCCn2nc(C)c3c(C)n(-c4ccccc4)nc3c2=O)cc1 [2e]
29 ± 7	Cc1nn(CCCC(=O)NCCc2ccccc2)c(=O)c2nn(-c3ccccc3)c(C)c12 [2f]
50 ± 16	Cc1ccc(-n2nc3c(=O)n(CCCC(=O)NCc4ccco4)nc(C)c3c2C)cc1 [2g]
17 ± 9	Cc1ccc(-n2nc3c(=O)n(CCCC(=O)NCc4ccccc4)nc(C)c3c2C)cc1 [2h]
6 ± 2	Cc1ccc(-n2nc3c(=O)n(CCCC(=O)NCCc4ccccc4)nc(C)c3c2C)cc1 [2i]
5 ± 3	Cc1ccc(CCNC(=O)CCCn2nc(C)c3c(C)n(-c4ccc(C)cc4)nc3c2=O)cc1 [2j]
